Data published in US9808470B2, “Estrogenic components for use in the treatment of neurological disorders” (UNIVERSITE DE LIEGE, priority 2012, dated 2017).

Legend:
[1] = test system: cytosolic estrogen receptors; conditions: competitive receptor binding, relative to E2; cited from earlier work
[2] = test system: S100B; test: Ex.3 neuroprotective HIE rat model: blood serum S100B ELISA; format: in vivo; conditions: PND14
Experimental: Blood was withdrawn, centrifuged and the serum samples were stored at −80° C.
ELISAs for detecting the brain damage markers S100B protein (Catalog# CSB-E08066r, Cusabio Biotech Co., LTD, China), and glial fibrillary acidic protein (GFAP) (Catalog# E90068Ra, Uscn Life sciences Inc., China) in blood serum samples were performed according to the manufacturers' recommendations.
Newborn rat pups were assigned to one of the following 6 groups from postnatal day 4: Sham group (n=24), Vehicle group (n=14), E4 1 mg/kg/per day group (n=11), E4 5 mg/kg/per day group (n=14), E4 10 mg/kg/per day group (n=14), or E4 50 mg/kg/per day group (n=19). From postnatal day 4, rat pups were intraperitoneally injected either vehicle (Vehicle group) or E4 (1, 5, 10, or 50 mg/kg/per day in accordance to the E4 group assignment) or neither vehicle nor E4 (Sham group). At day 7, 30 minutes after last injection, animals were anesthetized with isoflurane (induction, 3.0%; maintenance, 1.5%), and the rat pups from Vehicle and E4 groups passed through surgery encompassing left common carotid artery double ligation and cut. After the procedure, the pups were returned to their dams and were allowed to recover for 1 hour. The pups were then placed in the humidified hypoxic in vivo cabinet (CoyLab, Grass Lake, Mich., USA). […]

[3] = test system: doublecortin (DCX); test: Ex.8 therapeutic HIE rat model: doublecortin staining; format: in vivo
Experimental: To study the therapeutic effect of estetrol, newborn rat pups were assigned to one of the following 14 groups at postnatal day 7 (FIG. 23(B)): Sham group (n=12), Vehicle (n=15), 5 mg/kg/day E4 (n=11), 10 mg/kg/day E4 (n=11), 5 mg/kg/day E4+1.6 mg/kg/day PROG (n=11), 10 mg/kg/day E4+1.6 mg/kg/day PROG (n=11), 5 mg/kg/day E4+16 mg/kg/day PROG (n=11), 10 mg/kg/day E4+16 mg/kg/day PROG (n=13), 5 mg/kg/day E4+136 ng//kg/day E2 (n=11), 10 mg/kg/day E4+136 ng/kg/day E2 (n=11), 5 mg/kg/day E4+1.6 mg/kg/day PROG+136 ng/kg/day E2 (n=12), 10 mg/kg/day E4+1.6 mg/kg/day PROG+136 ng/kg/day E2 (n=11), 5 mg/kg/day E4+16 mg/kg/day PROG+136 ng/kg/day E2 (n=11), 10 mg/kg/day E4+16 mg/kg/day PROG+136 ng/kg/day (n=12) groups. […] After surgery, the pups were returned to their dams and allowed to recover for 1 hour. The pups were then placed in a humidified hypoxic in vivo cabinet (CoyLab). […]
The sections were heated in 10 mmol/L citrate buffer (pH 6.0) at 100° C. for 10 minutes. […] Samples were analyzed with the aid of a microscope (Olympus Vanox AHBT3, Olympus), and the ImageJ software 15 (NIH). The percentage of positively stained cells was quantified as a sum of positively stained either DCX or VEGF cells divided by the total number of DAPI positive cells expressed in percentage.

SMILES: C[C@]12CC[C@@H]3c4ccc(O)cc4CC[C@H]3[C@@H]1[C@@H](O)[C@@H](O)[C@@H]2O [E4, 1,3,5(10)-estratrien-3,15α,16α,17β-tetrol]
- values for cytosolic estrogen receptor binding [1]: 0.015
- concentration of S100B in blood serum ([2]; 10 mg/kg E4 ip PND4-7 before HI, vs sham, 5 mg/kg E4 and 50 mg/kg E4): significantly higher
- concentration of S100B in blood serum ([2]; 50 mg/kg E4 ip PND4-7 before HI): 361 ± 32.914 pg/mL
- percentage of DCX positively stained cells ([3]; 5 mg/kg/day E4, CA2/CA3): 15.09±12.17%
- DCX positively stained cell percentage ([3]; 5 mg/kg/day E4, hippocampus): 59.73±3.44%
